This is an account of results in PubChem BioAssay AID434951 (Broad Institute, 2010).

The source made the active and inactive calls.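 Rule for the calls: active = a fitted half-maximal concentration EC50 for the rise in nuclear signal no higher than ten times the top dose tested; inconclusive = flat fit with activity between 30% and 70%, or unusable fit; inactive = EC50 beyond ten times the top dose.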 Where only a bound is given, the exact number is not on record here.

The target in this experiment is Hypoxia-inducible factor 1-alpha (Homo sapiens) (UniProt Q16665). As to the kind of experiment: activators of HIF1alpha nuclear accumulation, confirmation, imaging, fluorescence, U2OS GFP-HIF1alpha (AID 434951). As to conditions: U2OS GFP-HIF1alpha nuclear intensity, high-content imaging.
Sequence of Hypoxia-inducible factor 1-alpha (Homo sapiens) (Q16665 whole entry, looked up): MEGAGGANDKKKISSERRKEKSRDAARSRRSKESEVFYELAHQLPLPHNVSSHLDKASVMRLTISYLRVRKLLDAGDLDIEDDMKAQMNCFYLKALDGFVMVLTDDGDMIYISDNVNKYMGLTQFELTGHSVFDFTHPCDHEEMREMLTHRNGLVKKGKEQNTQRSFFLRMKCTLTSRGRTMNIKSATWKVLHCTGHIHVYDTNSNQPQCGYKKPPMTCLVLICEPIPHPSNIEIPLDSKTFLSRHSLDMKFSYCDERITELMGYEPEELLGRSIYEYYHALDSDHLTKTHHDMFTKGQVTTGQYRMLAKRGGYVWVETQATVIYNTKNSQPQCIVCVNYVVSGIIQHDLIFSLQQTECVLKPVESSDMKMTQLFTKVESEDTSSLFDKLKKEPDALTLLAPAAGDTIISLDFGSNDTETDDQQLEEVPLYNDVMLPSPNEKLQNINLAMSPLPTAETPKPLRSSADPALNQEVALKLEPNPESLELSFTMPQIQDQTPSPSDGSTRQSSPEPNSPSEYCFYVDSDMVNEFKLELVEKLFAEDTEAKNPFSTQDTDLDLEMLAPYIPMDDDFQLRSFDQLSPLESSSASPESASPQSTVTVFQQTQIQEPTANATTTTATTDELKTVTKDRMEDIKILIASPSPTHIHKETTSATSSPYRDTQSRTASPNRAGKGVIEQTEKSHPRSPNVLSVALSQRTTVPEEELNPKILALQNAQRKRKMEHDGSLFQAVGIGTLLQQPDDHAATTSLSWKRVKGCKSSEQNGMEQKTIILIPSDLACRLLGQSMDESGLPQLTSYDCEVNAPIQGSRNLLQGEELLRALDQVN
By EC50 is commonly meant the concentration needed to bring the measured effect to its halfway point. Regarding `CC1CCN(C(=O)CS(=O)(=O)Cc2ccccc2)CC1`, the EC50 was > 35 µM (inactive).
With `CCn1c(SCC(=O)Nc2nncs2)nnc1-c1ccco1`, the EC50 was > 35 µM (inactive).
The figure for `CNc1nc(-c2ccccn2)nnc1-c1ccccc1` is 7.4 µM; for `COCc1nnc(NC(=O)c2cc(Cl)ccc2OC)s1` it is > 35 µM (inactive); for `CCOC(=O)c1c(NC(=O)CN2C(=O)NC3(CCC(C)CC3)C2=O)sc(C)c1-c1ccc(C)cc1` (configuration not stated) it is 7.59 µM.
The figure for `O=C(CN1CCCCC1)N1CCCc2ccccc21` is > 35 µM (inactive); for `CCc1nc(SCC(=O)c2ccccc2)c2ccccc2n1` it is > 35 µM (inactive); for `O=C(COC(=O)c1cccc(S(=O)(=O)N2CCOCC2)c1)Nc1ncc(C(F)(F)F)cc1Cl` it is > 35 µM (inactive).
Under `COC(CN(C(=O)CCl)C(C(=O)NC1CCCCC1)c1ccc(Cl)cc1)OC` (configuration not stated) stands 19 µM; under `COc1ccc(NC(=O)c2cccs2)cn1`, > 35 µM (inactive).
Consider `COc1cccc(/C=N/NC(=O)c2ccc([N+](=O)[O-])cc2Cl)c1O`, for which the EC50 is > 35 µM (inactive).
Under `CC(=O)N1CCC(=NNc2nc3ccccc3[nH]2)CC1` stands > 35 µM (inactive); under `COc1ccc(-c2nnc(-c3cc4c(ccc5ccccc54)oc3=O)o2)cc1`, > 35 µM (inactive).
The figure for `CC/C(=N\N1CCCCCC1)c1c(O)n(-c2ccc(C)cc2)c(=O)[nH]c1=O` is > 35 µM (inactive).
Under `CC(C)c1ccc(N(C(=O)c2snc(C(N)=O)c2N)C(C(=O)NC2CCCC2)c2ccncc2)cc1` (configuration not stated) stands 21.4 µM.
Turning to `O=[N+]([O-])c1cc(S(=O)(=O)c2ccc(O)c([N+](=O)[O-])c2)ccc1O`, the EC50 was > 35 µM (inactive).
As to `Cc1ccc(-c2cc(C(=O)N3CCCCCC3)no2)cc1`, the EC50 was > 35 µM (inactive).
`COc1ccc(S(=O)(=O)N2CCOC2CNC(=O)C(=O)NCc2ccc3c(c2)OCO3)cc1OC` (configuration not stated): the EC50 was > 35 µM (inactive).
`COCCNC(=O)c1sc2nc(-c3ccccc3)cn2c1C`: the EC50 is > 35 µM (inactive).
Turning to `CCC(=O)NC(c1ccccc1OC)c1ccc2cccnc2c1O` (configuration not stated), the half-maximal effective concentration (EC50) is 6.11 µM.
The figure for `CCn1ncc(C2=NOC(C(=O)Nc3ccc4c(c3)OCO4)C2)c1C` (configuration not stated) is > 35 µM (inactive); for `CS(=O)(=O)c1ccc2nc(NC(=O)C3CC(=O)N(c4ccc(F)cc4)C3)sc2c1` (configuration not stated) it is > 35 µM (inactive).
For the molecule `O=C(CSc1nnc(-c2ccco2)n1Cc1ccco1)NCc1ccccc1`, the EC50 was > 35 µM (inactive).
`O=[N+]([O-])c1ccc(O)c(/C=N/Nc2ccccn2)c1`: the 50% effective concentration (EC50) is 6.39 µM.
Under `Cc1ccc(/C(=N/Nc2ncnc3ccccc23)C(=O)O)cc1` stands > 35 µM (inactive).
In the case of `COc1ccc(N2CCN(c3ccc(N4C(=O)CC(C)C4=O)cc3[N+](=O)[O-])CC2)cc1` (configuration not stated), the EC50 is > 35 µM (inactive).
Under `Cc1ccc(C2=NOC(=O)/C2=C\c2ccccc2)cc1` stands > 35 µM (inactive); under `O=c1c2ccccc2nc(COc2ccccc2)n1/N=C/c1ccc(O)cc1O`, 9.68 µM; under `Cc1nc(C)c(C(=O)N/N=C/c2cc(Br)ccc2O)s1`, 7.18 µM.
Consider `COC(=O)c1ccc(-n2cncn2)c([N+](=O)[O-])c1`, for which the EC50 was > 35 µM (inactive).
The figure for `CCCC(=O)NC(c1ccc(OC)cc1)c1ccc2cccnc2c1O` (configuration not stated) is 7.24 µM.
As for `O=C(Cn1ncc2c3ccccc3n(Cc3ccccc3F)c2c1=O)NCCN1CCOCC1`, the EC50 is > 35 µM (inactive).
Under `Cc1cccc2sc(NNC(=O)c3ccc(S(=O)(=O)N4CCc5ccccc5C4)cc3)nc12` stands 11.2 µM.
`Oc1c(CN2CCc3ccccc3C2)cc(Cl)c2cccnc12`: the concentration for a half-maximal effect (EC50) is 7.26 µM.
`O=C(NCC1CCCO1)c1cc(-c2ccccc2F)no1` (configuration not stated): the half-maximal effective concentration (EC50) is 21.7 µM.
With `CCOC(=O)c1c(-c2ccccc2)oc2cc(CN(C)C)c(O)c(CN(C)C)c12`, the EC50 was 5.53 µM.
In the case of `Cc1cc(Nc2ccccc2)cc(=O)n1C`, the EC50 was > 35 µM (inactive).
For `CC1CN(c2nc3ccccn3c(=O)c2/C=C(\C#N)C(=O)N2CCOCC2)CC(C)O1` (configuration not stated), the EC50 was > 35 µM (inactive).
The figure for `CCOC(=O)c1c(-c2ccccc2)oc2ccc(OCC(O)CN(C)C)cc12` (configuration not stated) is 33.8 µM; for `O=C(N/N=C/c1c(O)ccc2ccccc12)c1ccc(CO)nc1` it is 6.6 µM; for `COc1ccccc1-c1cc(C(F)(F)F)nc(S(C)(=O)=O)n1` it is 18 µM.
With `CC(C)c1ccc2oc(=O)cc(CN3CCOCC3)c2c1`, the EC50 is > 35 µM (inactive).
As for `CCc1cc(C(=O)N/N=C/c2ccc(O)cc2O)c2ccccc2n1`, the concentration giving a half-maximal response (EC50) is 17.5 µM.
For the molecule `O=[N+]([O-])c1ccc(OCCCCN2CCCCC2)cc1`, the EC50 is > 35 µM (inactive).
Regarding `COc1ccc(C(CC(=O)NCc2ccccc2)Sc2n[nH]c(-c3ccccc3)n2)cc1` (configuration not stated), the EC50 is 33 µM.
The figure for `CCOC(=O)C1CCN(C(=O)C2CCCN(c3ncnc4c3nc3n4CCCCC3)C2)CC1` (configuration not stated) is > 35 µM (inactive); for `O=[N+]([O-])c1ccc(N=Cc2ccc(Br)c([N+](=O)[O-])c2)cc1` it is 15.4 µM.
`c1ccc(N=Nc2ccc3cccccc2-3)cc1`: the EC50 is 33.1 µM.
Regarding `CCCOc1ccc(/C=N/NC(=O)CSc2ccccn2)cc1OC`, the EC50 was > 35 µM (inactive).
For `Nc1ccc(C(=O)Nc2ccc3nc(-c4ccncc4)[nH]c3c2)cc1`, the EC50 is > 35 µM (inactive).
Regarding `Cc1ccc2nc(SCC(=O)N3CCCCCC3)nc(=O)n2c1`, the EC50 was > 35 µM (inactive).
The figure for `CCN(CC)S(=O)(=O)c1ccc(N/N=C/c2cc(OC)ccc2O)nc1` is 4.31 µM; for `Cc1ccc2nc(N3CCN(C)CC3)[nH]c2c1` it is > 35 µM (inactive).
Consider `COc1cccc(OCc2cc(C(=O)N3CCN(c4ccccc4OC)CC3)no2)c1`, for which the EC50 was > 35 µM (inactive).
The figure for `Cn1c(CO)nc2c3ccccc3ccc21` is > 35 µM (inactive); for `CCN(CC)CCn1nc2c3c(cccc3c1=O)-c1ccccc1-2` it is > 35 µM (inactive).
In the case of `Cc1ccc(C)c(S(=O)(=O)N2CCN(Cc3ccc(O)c4ncccc34)CC2)c1`, the EC50 was 6.84 µM.
As for `COc1ccccc1-c1cc(C(F)(F)F)nc(S(=O)(=O)CCCC(=O)N2CCCCC2C)n1` (configuration not stated), the EC50 is > 35 µM (inactive).
The figure for `Cc1ccn2cc(-c3ccc(O)c(O)c3)nc2c1` is > 35 µM (inactive); for `Cn1nnc(NC(=O)c2cccc([N+](=O)[O-])c2)n1` it is > 35 µM (inactive); for `O=C(N/N=C\c1cc(Br)ccc1O)c1ccc(S(=O)(=O)N2CCCCC2)cc1` it is 6.74 µM.
Consider `CCCc1sc(N/N=C/c2ccccn2)nc1-c1ccc(F)cc1`, for which the concentration giving a half-maximal response (EC50) is 6.01 µM.
Consider `S=C(N/N=C/c1cccc2ccccc12)Nc1cccc(Cl)c1`, for which the EC50 was 31.9 µM.
Under `O=C(CN(Cc1ccc(F)cc1)C(=O)CCC(=O)Nc1nccs1)NCC1CCCO1` (configuration not stated) stands > 35 µM (inactive).
`CCOC(=O)c1sc(=S)n(-c2ccccc2)c1C`: the EC50 was > 35 µM (inactive).
Under `Cc1ccsc1C(=O)N/N=C/c1ccc([N+](=O)[O-])cc1` stands > 35 µM (inactive); under `COc1cnc(-c2ccccn2)nc1N(C)C`, 5.92 µM.
